Measured values as given in the supplement of paper PMC10307832.

Columns and labels:
Experiment in all cases: relative viability (nuclei count vs DMSO), 5 days (fraction); higher = more cells survive
NCI-H1666 = tested on: NCI-H1666
Summary of the method: (§1)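 Lung cancer cell lines in 1536-well plates got either a single drug or a fixed anchor-drug dose together with five library-drug doses (not always all listed) in √10 steps, by pin tool, on the day after seeding. Nuclei were counted after 5 days, and relative viability is the treated-to-vehicle ratio of nuclei counts. Values are medians of duplicate plates.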

NCI-H2347 = tested on: NCI-H2347
Summary of the method: as §1

ABC-1 = tested on: ABC-1
Summary of the method: as §1

SW 1573 = tested on: SW 1573
Summary of the method: as §1

LK-2 = tested on: LK-2
Summary of the method: as §1

NCI-H1355 = tested on: NCI-H1355
Summary of the method: as §1

NCI-H727 = tested on: NCI-H727
Summary of the method: as §1

NCI-H1755 = tested on: NCI-H1755
Summary of the method: as §1

HCC-78 = tested on: HCC-78
Summary of the method: as §1

NCI-H1650 = tested on: NCI-H1650
Summary of the method: as §1

NCI-H358 = tested on: NCI-H358
Summary of the method: as §1

201T = tested on: 201T
Summary of the method: as §1

HCC-366 = tested on: HCC-366
Summary of the method: as §1

NCI-H838 = tested on: NCI-H838
Summary of the method: as §1

UMC-11 = tested on: UMC-11
Summary of the method: as §1

NCI-H2228 = tested on: NCI-H2228
Summary of the method: as §1

BEN = tested on: BEN
Summary of the method: as §1

NCI-H1734 = tested on: NCI-H1734
Summary of the method: as §1

NCI-H520 = tested on: NCI-H520
Summary of the method: as §1

LOU-NH91 = tested on: LOU-NH91
Summary of the method: as §1

NCI-H2009 = tested on: NCI-H2009
Summary of the method: as §1

NCI-H2405 = tested on: NCI-H2405
Summary of the method: as §1

Cc1cnc(-c2cnc(NCCNc3ccc(C#N)cn3)nc2-c2ccc(Cl)cc2Cl)[nH]1 + COc1cc2c(Oc3ccc(NC(=O)C4(C(=O)Nc5ccc(F)cc5)CC4)cc3F)ccnc2cc1OCCCN1CCOCC1 [Foretinib] (partner 0.25 µM)
relative viability (NCI-H1666; first compound 0.08 µM): 0.934 | relative viability (NCI-H1666; first compound 0.253 µM): 0.906 | relative viability (NCI-H1666; first compound 0.8 µM): 0.995 | relative viability (NCI-H1666; first compound 2.53 µM): 0.924 | relative viability (NCI-H2347; first compound 0.08 µM): 0.963 | relative viability (NCI-H2347; first compound 0.253 µM): 1.11 | relative viability (NCI-H2347; first compound 0.8 µM): 0.877 | relative viability (NCI-H2347; first compound 2.53 µM): 0.841 | relative viability (ABC-1; first compound 0.08 µM): 1.32 | relative viability (ABC-1; first compound 0.253 µM): 1.31 | relative viability (ABC-1; first compound 0.8 µM): 1.34 | relative viability (ABC-1; first compound 2.53 µM): 1.2 | relative viability (SW 1573; first compound 0.08 µM): 0.929 | relative viability (SW 1573; first compound 0.253 µM): 0.87 | relative viability (SW 1573; first compound 0.8 µM): 0.907 | relative viability (SW 1573; first compound 2.53 µM): 0.769 | relative viability (LK-2; first compound 0.08 µM): 1.6 | relative viability (LK-2; first compound 0.253 µM): 0.82 | relative viability (LK-2; first compound 0.8 µM): 0.942 | relative viability (LK-2; first compound 2.53 µM): 1.21 | relative viability (NCI-H1355; first compound 0.08 µM): 0.901 | relative viability (NCI-H1355; first compound 0.253 µM): 0.867 | relative viability (NCI-H1355; first compound 0.8 µM): 0.97 | relative viability (NCI-H1355; first compound 2.53 µM): 0.96 | relative viability (NCI-H727; first compound 0.08 µM): 0.943 | relative viability (NCI-H727; first compound 0.253 µM): 0.918 | relative viability (NCI-H727; first compound 0.8 µM): 0.732 | relative viability (NCI-H727; first compound 2.53 µM): 0.898 | relative viability (NCI-H1755; first compound 0.08 µM): 0.936 | relative viability (NCI-H1755; first compound 0.253 µM): 0.808 | relative viability (NCI-H1755; first compound 0.8 µM): 0.982 | relative viability (NCI-H1755; first compound 2.53 µM): 0.972 | relative viability (HCC-78; first compound 0.08 µM): 0.471 | relative viability (HCC-78; first compound 0.253 µM): 0.488 | relative viability (HCC-78; first compound 0.8 µM): 0.525 | relative viability (HCC-78; first compound 2.53 µM): 0.568 | relative viability (NCI-H1650; first compound 0.08 µM): 1.37 | relative viability (NCI-H1650; first compound 0.253 µM): 1.22 | relative viability (NCI-H1650; first compound 0.8 µM): 1.25 | relative viability (NCI-H1650; first compound 2.53 µM): 1.01 | relative viability (NCI-H358; first compound 0.08 µM): 0.735 | relative viability (NCI-H358; first compound 0.253 µM): 0.597 | relative viability (NCI-H358; first compound 0.8 µM): 0.404 | relative viability (NCI-H358; first compound 2.53 µM): 0.509 | relative viability (201T; first compound 0.08 µM): 1.19 | relative viability (201T; first compound 0.253 µM): 0.807 | relative viability (201T; first compound 0.8 µM): 1.16 | relative viability (201T; first compound 2.53 µM): 1.14 | relative viability (HCC-366; first compound 0.08 µM): 1.01 | relative viability (HCC-366; first compound 0.253 µM): 0.964 | relative viability (HCC-366; first compound 0.8 µM): 0.892 | relative viability (HCC-366; first compound 2.53 µM): 0.922 | relative viability (NCI-H838; first compound 0.08 µM): 1.04 | relative viability (NCI-H838; first compound 0.253 µM): 1.02 | relative viability (NCI-H838; first compound 0.8 µM): 1.15 | relative viability (NCI-H838; first compound 2.53 µM): 1.21 | relative viability (UMC-11; first compound 0.08 µM): 0.986 | relative viability (UMC-11; first compound 0.253 µM): 0.999 | relative viability (UMC-11; first compound 0.8 µM): 1.11 | relative viability (UMC-11; first compound 2.53 µM): 1 | relative viability (NCI-H2228; first compound 0.08 µM): 0.954 | relative viability (NCI-H2228; first compound 0.253 µM): 0.761 | relative viability (NCI-H2228; first compound 0.8 µM): 0.898 | relative viability (NCI-H2228; first compound 2.53 µM): 0.589 | relative viability (BEN; first compound 0.08 µM): 0.857 | relative viability (BEN; first compound 0.253 µM): 0.68 | relative viability (BEN; first compound 0.8 µM): 0.746 | relative viability (BEN; first compound 2.53 µM): 0.69 | relative viability (NCI-H1734; first compound 0.08 µM): 0.926 | relative viability (NCI-H1734; first compound 0.253 µM): 0.762 | relative viability (NCI-H1734; first compound 0.8 µM): 0.834 | relative viability (NCI-H1734; first compound 2.53 µM): 0.83 | relative viability (NCI-H520; first compound 0.08 µM): 0.71 | relative viability (NCI-H520; first compound 0.253 µM): 0.593 | relative viability (NCI-H520; first compound 0.8 µM): 0.918 | relative viability (NCI-H520; first compound 2.53 µM): 1.04 | relative viability (LOU-NH91; first compound 0.08 µM): 0.975 | relative viability (LOU-NH91; first compound 0.253 µM): 0.901 | relative viability (LOU-NH91; first compound 0.8 µM): 0.96 | relative viability (LOU-NH91; first compound 2.53 µM): 0.942 | relative viability (NCI-H2009; first compound 0.08 µM): 1.27 | relative viability (NCI-H2009; first compound 0.253 µM): 1.21 | relative viability (NCI-H2009; first compound 0.8 µM): 1.35 | relative viability (NCI-H2009; first compound 2.53 µM): 1.03 | relative viability (NCI-H2405; first compound 0.08 µM): 1.04 | relative viability (NCI-H2405; first compound 0.253 µM): 0.974 | relative viability (NCI-H2405; first compound 0.8 µM): 1.05 | relative viability (NCI-H2405; first compound 2.53 µM): 0.845
